Earlier results, collected in US20240398831A1, “COMPOSITIONS COMPRISING SMALL MOLECULE REGULATORS OF TUMOR IMMUNITY AND METHODS OF USING SAME” (Duke University, priority 2021, published 2024).

System: melanoma
Conditions: human, in vivo; cited from earlier work

For CC/C(=C(\c1ccccc1)c1ccc(OCCN(C)C)cc1)c1ccccc1 [tamoxifen], the “results of studies in melanoma patients” value is listed as “equivocal”.
